# Test results reported in patent publication US10905680B2, “Methods of treatment for cholestatic and fibrotic diseases” (Genfit, priority 2016, dated 2021).
# What was measured:
# [1] = test system: Normal Human Dermal Fibroblasts (NHDF); assay: ACTA2 transcripts in TGFβ1-induced normal human dermal fibroblasts (RT-qPCR); type: cell-based; conditions: TGFβ1 10 ng/ml, 24 hours
# Experimental: Serum-deprived normal human dermal fibroblasts (NHDF) were preincubated for 1 hour with NTZ (A) or TZ (B) before the activation with TGFβ1 (10 ng/ml). After 24 hours of incubation, the expression of ACTA2 was measured by RT-qPCR. The expression values were then transformed as fold induction over TGFβ1 control. Data are presented as mean (triplicates)±SEM (Standard Error of Mean). Statistical analyses were performed by a student's t-test (for TGFβ-stimulated vs unstimulated conditions); [#: p<0.05; ## p<0.01; ### p<0.001] or by aone-way ANOVA followed by Bonferroni post-hoc tests (for compound-treated samples vs TGFβ1 control). [*: p<0.05; **: p<0.01; ***: p<0.001], using GraphPad Prism 7.04 software.
# Normal Human Dermal Fibroblasts (NHDF) (Lonza) were cultured in Fibroblast Basal Medium (FBM) (Lonza cat # CC-3131) supplemented with FGM-2 SingleQuots™ Kit (Lonza cat # CC-3132) and 2% FBS. […]
# Quantitative PCR was then carried out using the MyiQ Single-Color Real-Time PCR Detection System (Biorad). […]
# For each gene, the standard curves were drawn by selecting the best points (at least three points) in order to have PCR reaction efficiency close to 100% and a correlation coefficient close to 1. Expression levels were determined using the standard curve equation for both the housekeeping gene and the target gene (taking into account the specific PCR efficiency of each target gene).
# [2] = test system: rat primary hepatic stellate cells (rHSC); assay: TGFβ1-induced expression of α-SMA protein in rat HSC (ELISA); type: cell-based; conditions: TGFβ1 3 ng/ml, 48 hours
# Experimental: NTZ (A) or TZ (B) were added to serum-deprived rat HSC (rHSC) 1 hour before the activation with TGFβ1 (3 ng/ml). After 48 hours of incubation, the expression of α-SMA was measured by ELISA. The obtained values were transformed into percentage inhibition over TGFβ1 control. Data are presented as mean (triplicates)±standard deviation (SD). Statistical analyses were performed by one-way ANOVA followed by Bonferroni post-hoc tests, using Sigma Plot 11.0 software. [*: p<0.05; **: p<0.01; ***: p<0.001 (comparison versus TGFβ1 3 ng/mL group)]. The rat primary hepatic stellate cells (rHSC) (Innoprot) were cultured in STeCM medium (ScienCell cat #5301) that was supplemented with 2% fetal bovine serum (FBS, ScienCell cat #0010), 1% penicillin/streptomycin (ScienCell cat #0503) and stellate cell growth supplement (SteCGS; ScienCell cat #5352). For the activation experiments with TGFβ1, the rHSC were plated at a density of 10×10^3 cells per well in 96-well plates. The next day, cell culture medium was removed, and cells were washed with PBS (Invitrogen cat #14190). rHSC were deprived for 24 hours in serum-free and SteCGS-free medium. […] The level of α-SMA was measured using a Sandwich ELISA. […]
structure (smiles),measurement,setting,value
"O=C(Nc1ncc([N+](=O)[O-])s1)c1ccccc1O [TZ, 2-hydroxy-N-(5-nitro-2-thiazolyl)benzamide]",antifibrotic effects (ACTA2 transcripts) in TGFβ-activated normal human dermal fibroblasts,[1],significant and dose-dependent antifibrotic effects
same,α-SMA levels in TGFβ-activated HSC derived from rat,[2],reduced
